Experiment: Pharmacokinetic interaction study in rats, plasma by UPLC-MS/MS
Assay type: in vivo, Sprague–Dawley rats
Conditions: oral, n = 6
Experimental: The sample size for each group of rats was calculated using the resource equation method [27]. The doses were chosen by converting the clinically recommended doses for patients to animal doses. […] The value of Km represents the equivalent dose ratio between humans and rats, calculated based on body surface area. […] The following groups received control solvents corresponding to each drug for a duration of seven consecutive days. […] Conversely, remaining groups were treated with their respective drugs at the aforementioned doses for seven consecutive days. […] Blood samples were centrifuged at 3,500 rpm for 10 min, and the supernatant was collected and stored at -80°C until processing for UPLC-MS/MS. The induction of anesthesia was performed using 5% isoflurane, and the concentration was maintained at 2% throughout the blood collection process. The blood was extracted from the eye venous plexus by well-trained professionals to minimize the animal's suffering. Following blood collection, rat liver, intestinal and kidney tissues were collected for molecular analysis on the seventh day post-treatment with the corresponding drugs for each group. Before euthanizing the animals, they were required to fast for at least 12 hours. Using sodium pentobarbital (2 g/kg) to put the animals into a deep state of anesthesia, Collect the required tissue samples and the rats were euthanized by cervical dislocation. […] The temperature maintained at 40 by gradient elution. […] Aliquots (8 μL) of these redissolved samples were used into the UPLC-MS/MS system for subsequent analysis. […] Analysis was conducted in a non-compartmental model. The metrics such as the area under the concentration-time curve (AUC), maximum plasma concentration (Cmax), time to reach Cmax (Tmax), elimination half-life (t1/2), plasma clearance volume per time unit (CLz/F), apparent volume of distribution (Vz), and mean residence time (MRT) were expressed as mean ± standard deviation (SD). Comparisons corresponding test groups were conducted using SPSS 25.0 software (SPSS Inc., Chicago, IL, USA).

Cmax ((control of the henagliflozin study)) [ng/mL] | Cmax (henagliflozin 1 mg/kg after telmisartan 8 mg/kg for 7 days) [ng/mL] | Vz (henagliflozin 1 mg/kg alone) [L/kg] | Compound
160.33 ± 24.57 |  |  | CCCc1nc2c(C)cc(-c3nc4ccccc4n3C)cc2n1Cc1ccc(-c2ccccc2C(=O)O)cc1 [telmisartan]
 | 356.83 ± 59.55 | 3.87 ± 1.49 | CCOc1ccc(Cc2cc([C@@]34OC[C@@](CO)(O3)[C@@H](O)[C@H](O)[C@H]4O)ccc2Cl)cc1F [henagliflozin]
